Experimental data taken from patent publication US12528786B2, “Plasma kallikrein inhibitors” (Merck Sharp & Dohme LLC, priority 2020, dated 2026).

Each compound was assayed against T1, Human plasma kallikrein (Homo sapiens, UniProt P03952) (assay: Kallikrein Assay (fluorogenic substrate hydrolysis, AFC release)). Settings: purified Human plasma kallikrein 0.5 nM; substrate Acetyl-K—P—R-AFC 100 mM; 50 mM HEPES pH 7.4.
T1 construct: yields a heavy chain (371 amino acids) and a light chain (248 amino acids); purchased Enzyme Research Laboratories
Assay type: biochemical
Experimental: The effectiveness of a compound of the present invention as an inhibitor of Kallikrein can be determined using a relevant purified serine protease, and an appropriate synthetic substrate. The rate of hydrolysis of the chromogenic or fluorogenic substrate by the relevant serine protease was measured both in the absence and presence of compounds of the present invention. Assays were conducted at room temperature or at 37° C. […] A decrease in the rate of fluorescence change in the presence of inhibitor is indicative of enzyme inhibition. Such methods are known to one skilled in the art. The results of this assay are expressed as the half-maximal inhibitory concentrations (IC50), or the inhibitory constant, Ki.
Kallikrein determinations were made in 50 mM HEPES buffer at pH 7.4 containing 150 mM NaCl, 5 mM CaCl2), and 0.1% PEG 8000 (polyethylene glycol; Fisher Scientific). Determinations were made using purified Human plasma kallikrein at a final concentration of 0.5 nM (Enzyme Research Laboratories) and the synthetic substrate, Acetyl-K—P—R-AFC (Sigma #C6608) at a concentration of […].
Activity assays were performed by diluting a stock solution of substrate at least tenfold to a final concentration ≤0.2 Km into a solution containing enzyme or enzyme equilibrated with inhibitor. Times required to achieve equilibration between enzyme and inhibitor were determined in control experiments. The reactions were performed under linear progress curve conditions and fluorescence increase measured at 405 Ex/510 Em nm. Values were converted to percent inhibition of the control reaction (after subtracting 100% Inhibition value). IC50 was determined by inflection point from a four parameter logistic curve fit. Ki was calculated using the Cheng Prusoff equation, Ki=IC50/(1+([S]/Km)).

T1 sequence (P03952 391-638 limits assumed): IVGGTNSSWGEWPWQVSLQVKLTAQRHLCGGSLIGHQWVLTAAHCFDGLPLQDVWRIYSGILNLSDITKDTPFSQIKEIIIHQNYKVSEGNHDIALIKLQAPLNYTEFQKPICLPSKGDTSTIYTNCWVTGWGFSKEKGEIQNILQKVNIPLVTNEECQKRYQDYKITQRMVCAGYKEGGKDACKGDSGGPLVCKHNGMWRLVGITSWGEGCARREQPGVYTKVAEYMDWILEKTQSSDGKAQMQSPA
T1 sequence (P03952 20-390 partner limits assumed): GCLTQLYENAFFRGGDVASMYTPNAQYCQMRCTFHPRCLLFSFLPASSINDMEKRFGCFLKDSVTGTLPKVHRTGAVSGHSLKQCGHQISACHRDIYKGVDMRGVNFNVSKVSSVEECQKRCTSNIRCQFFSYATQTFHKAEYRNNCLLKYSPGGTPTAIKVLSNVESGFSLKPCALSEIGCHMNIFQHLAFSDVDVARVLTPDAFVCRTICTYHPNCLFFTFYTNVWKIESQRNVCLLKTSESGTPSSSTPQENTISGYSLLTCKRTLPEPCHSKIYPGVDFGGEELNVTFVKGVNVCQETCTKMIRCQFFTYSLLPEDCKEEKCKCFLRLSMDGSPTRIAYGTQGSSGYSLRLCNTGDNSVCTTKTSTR

| Compound | IC50 [nM] |
| --- | --- |
| COc1cc(C(C)n2cc(C(=O)N[C@H]3C[C@@H](c4cc(Cl)ccc4C#N)C3)nn2)cnc1N1C[C@H]2C[C@H]2C1=O (mixture of isomers) [Example 100, N-((cis)-3-(5-chloro-2-cyanophenyl)cyclobutyl)-1-((R and S)-1-(5-methoxy-6-((1R,5S)-2-oxo-3-azabicyclo[3.1.0]hexan-3-yl)pyridin-3-yl)ethyl)-1H-1,2,3-triazole-4-carboxamide] | 2 |
| Cc1c([C@H](C)n2cc(C(=O)N[C@H]3C[C@@H](c4cc(Cl)ccc4C#N)C3)nn2)cnc(N2C[C@H]3C[C@H]3C2=O)c1O (relative stereo) [Example 164, N-((cis)-3-(5-chloro-2-cyanophenyl)cyclobutyl)-1-((S)-1-(5-hydroxy-4-methyl-6-((1R,5S)-2-oxo-3-azabicyclo[3.1.0]hexan-3-yl)pyridin-3-yl)ethyl)-1H-12,3-triazole-4-carboxamide] | 46.7 |
| CC(c1cnc(N2C[C@H]3C[C@H]3C2=O)nc1)n1cc(C(=O)N[C@H]2C[C@@H](c3cc(Cl)ccc3C#N)C2)cn1 (single isomer, unassigned) [Example 3, N-((cis)-3-(5-chloro-2-cyanophenyl)cyclobutyl)-1-((R or S)-1-(2-((1R,5S)-2-oxo-3-azabicyclo[3.1.0]hexan-3-yl)pyrimidin-5-yl)ethyl)-1H-pyrazole-4-carboxamide] | 6.7 |
| CC(c1cnc(N2C[C@H]3C[C@H]3C2=O)nc1)n1cc(C(=O)N[C@H]2C[C@@H](c3cc(Cl)ccc3C#N)C2)cn1 (single isomer, unassigned) [Example 4, N-((cis)-3-(5-chloro-2-cyanophenyl)cyclobutyl)-1-((S or R)-1-(2-((1R,5S)-2-oxo-3-azabicyclo[3.1.0]hexan-3-yl)pyrimidin-5-yl)ethyl)-1H-pyrazole-4-carboxamide carboxamide] | 17.5 |
| Cc1cc([C@H](C)n2cc(C(=O)N[C@H]3C[C@@H](c4cc(Cl)ccc4C#N)C3)cn2)cnc1N1C[C@H]2C[C@H]2C1=O (single isomer, unassigned) [Example 5] | 0.6 |
| Cc1cc([C@@H](C)n2cc(C(=O)N[C@H]3C[C@@H](c4cc(Cl)ccc4C#N)C3)cn2)cnc1N1C[C@H]2C[C@H]2C1=O (single isomer, unassigned) [Example 6] | 0.7 |
| Cc1cc(N2C[C@H]3C[C@H]3C2=O)ncc1C(C)n1cc(C(=O)N[C@H]2C[C@@](C)(c3cc(Cl)ccc3C#N)C2)cn1 (single isomer, unassigned) [Example 9, N-((cis)-3-(5-chloro-2-cyanophenyl)-3-methylcyclobutyl)-1-((R or S)-1-(4-methyl-6-((1R,5S)-2-oxo-3-azabicyclo[3.1.0]hexan-3-yl)pyridin-3-yl)ethyl)-1H-pyrazole-4-carboxamide] | 0.3 |
| Cc1cc(N2C[C@H]3C[C@H]3C2=O)ncc1C(C)n1cc(C(=O)N[C@H]2C[C@@](C)(c3cc(Cl)ccc3C#N)C2)cn1 (single isomer, unassigned) [Example 10, N-((cis)-3-(5-chloro-2-cyanophenyl)-3-methylcyclobutyl)-1-((S or R)-1-(4-methyl-6-((1R,5S)-2-oxo-3-azabicyclo[3.1.0]hexan-3-yl)pyridin-3-yl)ethyl)-1H-pyrazole-4-carboxamide] | 3.6 |
| COc1cc(N2C[C@H]3C[C@H]3C2=O)ncc1[C@H](C)n1cc(C(=O)N[C@H]2C[C@@H](c3cc(Cl)ccc3C#N)C2)cn1 (single isomer, unassigned) [Example 11] | 0.9 |
| COc1cc(N2C[C@H]3C[C@H]3C2=O)ncc1[C@@H](C)n1cc(C(=O)N[C@H]2C[C@@H](c3cc(Cl)ccc3C#N)C2)cn1 (single isomer, unassigned) [Example 12] | 7.7 |
| COc1cc(C(C)n2cc(C(=O)N[C@H]3C[C@@H](c4cc(Cl)ccc4C#N)C3)cn2)cnc1N1C[C@H]2C[C@H]2C1=O (single isomer, unassigned) [Example 13, N-((cis)-3-(5-chloro-2-cyanophenyl)cyclobutyl)-1-((R or S)-1-(5-methoxy-6-((1R,5S)-2-oxo-3-azabicyclo[3.1.0]hexan-3-yl)pyridin-3-yl)ethyl)-1H-pyrazole-4-carboxamide] | 1 |
| COc1cc(C(C)n2cc(C(=O)N[C@H]3C[C@@H](c4cc(Cl)ccc4C#N)C3)cn2)cnc1N1C[C@H]2C[C@H]2C1=O (single isomer, unassigned) [Example 14, N-((cis)-3-(5-chloro-2-cyanophenyl)cyclobutyl)-1-((S or R)-1-(5-methoxy-6-((1R,5S)-2-0x0-3-azabicyclo[3.1.0]hexan-3-yl)pyridin-3-yl)ethyl)-1H-pyrazole-4-carboxamide] | 2.8 |
| Cc1nn(C(C)c2cnc(N3C[C@H]4C[C@H]4C3=O)nc2)cc1C(=O)N[C@H]1C[C@@H](c2cc(Cl)ccc2C#N)C1 (single isomer, unassigned) [Example 15, N-((cis)-3-(5-chloro-2-cyanophenyl)cyclobutyl)-3-methyl-1-((R or S)-1-(2-((1R,5S)-2-oxo-3-azabicyclo[3.1.0]hexan-3-yl)pyrimidin-5-yl)ethyl)-1H-pyrazole-4-carboxamide] | 2.6 |
| Cc1nn(C(C)c2cnc(N3C[C@H]4C[C@H]4C3=O)nc2)cc1C(=O)N[C@H]1C[C@@H](c2cc(Cl)ccc2C#N)C1 (single isomer, unassigned) [Example 16, N-((cis)-3-(5-chloro-2-cyanophenyl)cyclobutyl)-3-methyl-1-((S or R)-1-(2-((1R,5S)-2-oxo-3-azabicyclo[3.1.0]hexan-3-yl)pyrimidin-5-yl)ethyl)-1H-pyrazole-4-carboxamide] | 6.7 |
| CC(c1cnc(N2C[C@H]3C[C@H]3C2=O)nc1)n1cc(C(=O)N[C@H]2C[C@@H](c3cc(Cl)ccc3C#N)C2)c(C#N)n1 (single isomer, unassigned) [Example 17, N-((cis)-3-(5-chloro-2-cyanophenyl)cyclobutyl)-3-cyano-1-((R or S)-1-(2-((1R,5S)-2-oxo-3-azabicyclo[3.1.0]hexan-3-yl)pyrimidin-5-yl)ethyl)-1H-pyrazole-4-carboxamide] | 5.5 |
| CC(c1cnc(N2C[C@H]3C[C@H]3C2=O)nc1)n1cc(C(=O)N[C@H]2C[C@@H](c3cc(Cl)ccc3C#N)C2)c(C#N)n1 (single isomer, unassigned) [Example 18, N-((cis)-3-(5-chloro-2-cyanophenyl)cyclobutyl)-3-cyano-1-((S or R)-1-(2-((1R,5S)-2-oxo-3-azabicyclo[3.1.0]hexan-3-yl)pyrimidin-5-yl)ethyl)-1H-pyrazole-4-carboxamide] | 10.2 |
| Cc1cc(N2C[C@H]3C[C@H]3C2=O)ncc1C(C)n1cc(C(=O)N[C@H]2C[C@@H](c3cc(Cl)ccc3C#N)C2)c(C)n1 (single isomer, unassigned) [Example 19, N-((cis)-3-(5-chloro-2-cyanophenyl)cyclobutyl)-3-methyl-1-((R or S)-1-(4-methyl-6-((1R,5S)-2-oxo-3-azabicyclo[3.1.0]hexan-3-yl)pyridin-3-yl)ethyl)-1H-pyrazole-4-carboxamide] | 0.3 |
| Cc1cc(N2C[C@H]3C[C@H]3C2=O)ncc1C(C)n1cc(C(=O)N[C@H]2C[C@@H](c3cc(Cl)ccc3C#N)C2)c(C)n1 (single isomer, unassigned) [Example 20, N-((cis)-3-(5-chloro-2-cyanophenyl)cyclobutyl)-3-methyl-1-((S or R)-1-(4-methyl-6-((1R,5S)-2-oxo-3-azabicyclo[3.1.0]hexan-3-yl)pyridin-3-yl)ethyl)-1H-pyrazole-4-carboxamide] | 2.1 |
| CC(c1cnc(N2C[C@H]3C[C@H]3C2=O)c(F)c1)n1cc(C(=O)N[C@H]2C[C@@H](c3cc(Cl)ccc3C#N)C2)cn1 (single isomer, unassigned) [Example 21, N-((cis)-3-(5-chloro-2-cyanophenyl)cyclobutyl)-1-((R or S)-1-(5-fluoro-6-((1R,5S)-2-oxo-3-azabicyclo[3.1.0]hexan-3-yl)pyridin-3-yl)ethyl)-1H-pyrazole-4-carboxamide] | 1.1 |
| CC(c1cnc(N2C[C@H]3C[C@H]3C2=O)c(F)c1)n1cc(C(=O)N[C@H]2C[C@@H](c3cc(Cl)ccc3C#N)C2)cn1 (single isomer, unassigned) [Example 22, N-((cis)-3-(5-chloro-2-cyanophenyl)cyclobutyl)-1-((S or R)-1-(5-fluoro-6-((1R,5S)-2-oxo-3-azabicyclo[3.1.0]hexan-3-yl)pyridin-3-yl)ethyl)-1H-pyrazole-4-carboxamide] | 1.5 |
| COc1cc(C(C)n2cc(C(=O)N[C@H]3C[C@@H](c4cc(C)ccc4C#N)C3)cn2)cnc1N1C[C@H]2C[C@H]2C1=O (single isomer, unassigned) [Example 23, N-((cis)-3-(2-cyano-5-methylphenyl)cyclobutyl)-1-((R or S)-1-(5-methoxy-6-((1R,5S)-2-oxo-3-azabicyclo[3.1.0]hexan-3-yl)pyridin-3-yl)ethyl)-1H-pyrazole-4-carboxamide] | 3.9 |
